Measurements as given in PMC11714206, “Massively Parallel Screening of Toll/Interleukin‐1 Receptor (TIR)‐Derived Peptides Reveals Multiple Toll‐Like Receptors (TLRs)‐Targeting Immunomodulatory Peptides” (Advanced Science, 2024).
Each block holds one sequence with its values, some of them ahead of it.

Biological target: T1, MyD88^TIR (Homo sapiens, UniProt Q99836)
T1 construct: MyD88 (residues 148–296); 6xHis; made in house; host or cells: E. coli BL21 (DE3)
Assay: T‐Surf phage library (P8 and P3) selection against MyD88^TIR, four rounds, NGS read counts
Format: binding
Settings: for P8_MyD88 Rank (after) / P8_MyD88 Rank (before): P8 library; for Population: P8_MyD88 pool: P8 T-Surf phage library, 4th round of selection against MyD88 TIR, share of NGS reads; for P3_MyD88 Rank (after) / P3_MyD88 Rank (before): P3 library
Outline: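 Coat TIR domain 5 µg mL^−1 overnight; block 0.2% BSA/PBS 1 h, 4 °C; add phage library 1 h, RT; wash ×4 PBS/0.5% Tween‐20; elute 100 mM HCl, neutralize Tris; amplify in TG1, PEG‐precipitate. Repeat to round 4; barcode PCR, NovaSeq, count reads.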

[1] = P8_MyD88: rank by NGS read count after grouping
[2] = P8_MyD88: rank by NGS read count before grouping
[3] = P8_MyD88: rank by count after grouping
[4] = P8_MyD88: rank by count before grouping
[5] = selection against MyD88, rank after grouping
[6] = selection against MyD88, rank before grouping
[7] = selection against MyD88, rank by count after grouping
[8] = selection against MyD88, rank by count before grouping
[9] = 4R selection against MyD88, rank after grouping
[10] = 4R selection against MyD88, rank before grouping
[11] = selection against MyD88 TIR, rank by count after grouping
[12] = selection against MyD88 TIR, rank by count before grouping

T1 sequence (Q99836 148-296): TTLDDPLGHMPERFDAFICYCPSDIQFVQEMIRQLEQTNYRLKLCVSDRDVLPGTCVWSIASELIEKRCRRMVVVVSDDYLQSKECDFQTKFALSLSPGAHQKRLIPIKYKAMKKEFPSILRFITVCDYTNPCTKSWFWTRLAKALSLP

Rank (after) [1]: 875
Rank (before) [2]: 2171
Sequence: VANILGYHWFDWEYFVVIGD

Rank (after) [3]: 474
Rank (before) [4]: 2164
Sequence: VANILGYHWIAREHFV

P8_MyD88 Rank (after) [5]: 563
P8_MyD88 Rank (before) [6]: 2191
Sequence: VANILGYHWMDWVYFV

Rank (after) [3]: 160
Rank (before) [4]: 177
Population: 0.00771%
Sequence: VASHWALEELRMIMDF

P3_MyD88 Rank (after) [7]: 683
P3_MyD88 Rank (before) [8]: 1770
Sequence: VDPSHLRKQSGEFG

P3_MyD88 Rank (after) [9]: 642
P3_MyD88 Rank (before) [10]: 1768
Sequence: VDPTHIRNQTGRYEKA

P3_MyD88 Rank (after) [11]: 229
P3_MyD88 Rank (before) [12]: 1765
Sequence: VGKLKKGESFAPELLR

P8_MyD88 Rank (after) [9]: 596
P8_MyD88 Rank (before) [10]: 2212
Sequence: VQCGDPWCWEKLAYAM

Rank (after) [1]: 1016
Rank (before) [2]: 2215
Sequence: VQWADPWFWDKLAYEK

P8_MyD88 Rank (after) [9]: 623
P8_MyD88 Rank (before) [10]: 2231
Sequence: VQWDDPWFWDKLAY

Rank (after) [3]: 417
Rank (before) [4]: 1009
Sequence: VQWDDPWFWDKLAYA

Rank (after) [1]: 1018
Rank (before) [2]: 2248
Sequence: VQWDDSWFWEKLLYA

Rank (after) [1]: 965
Rank (before) [2]: 2249
Sequence: VQWDELLQILHARELF

Rank (after) [3]: 460
Rank (before) [4]: 2253
Sequence: VQWEDPWFWDKLAYEM

Rank (after) [3]: 141
Rank (before) [4]: 155
Population: 0.01%
Sequence: VRHTFAGYLYDALNRL

P8_MyD88 Rank (after) [5]: 572
P8_MyD88 Rank (before) [6]: 2260
Sequence: VSHLIDAFERYGIMFFIDT

P8_MyD88 Rank (after) [7]: 731
P8_MyD88 Rank (before) [8]: 2266
Sequence: VSHLSDSFERYGIMFF

Rank (after) [3]: 116
Rank (before) [4]: 124
Population: 0.0173%
Sequence: VSSFISYLIAAFNRQG

Rank (after) [1]: 947
Rank (before) [2]: 2269
Sequence: VTSSWALEELRHIMEL

Rank (after) [1]: 878
Rank (before) [2]: 1395
Sequence: WAFASNMAQFWDRLYS

P8_MyD88 Rank (after) [7]: 763
P8_MyD88 Rank (before) [8]: 1399
Sequence: WALAELLKILYAKEPM

Rank (after) [3]: 395
Rank (before) [4]: 1410
Sequence: WALAELLQLLHARELF

Rank (after) [1]: 988
Rank (before) [2]: 1523
Sequence: WALDDLLQILQARELF

P8_MyD88 Rank (after) [5]: 520
P8_MyD88 Rank (before) [6]: 1471
Sequence: WALDELLKFCMRMKP

P8_MyD88 Rank (after) [7]: 766
P8_MyD88 Rank (before) [8]: 1477
Sequence: WALDELLKILCANKTM

Population: 0.0116%
Sequence: WALDELLKILDAKETM

P8_MyD88 Rank (after) [7]: 687
P8_MyD88 Rank (before) [8]: 1492
Sequence: WALDELLKILHADETM

P8_MyD88 Rank (after) [11]: 222
P8_MyD88 Rank (before) [12]: 518
Sequence: WALDELLKILYARELF

P8_MyD88 Rank (after) [5]: 525
P8_MyD88 Rank (before) [6]: 1480
Sequence: WALDELLKILYVIATL

P8_MyD88 Rank (after) [5]: 524
P8_MyD88 Rank (before) [6]: 1441
Sequence: WALDELLQILHACEPF

P8_MyD88 Rank (after) [9]: 598
P8_MyD88 Rank (before) [10]: 1458
Sequence: WALDELLQILHAKETM

P8_MyD88 Rank (after) [5]: 577
P8_MyD88 Rank (before) [6]: 1451
Sequence: WALDELLQILHAREL

P8_MyD88 Rank (after) [9]: 632
P8_MyD88 Rank (before) [10]: 1453
Sequence: WALDELLQILHARELLQIA

P8_MyD88 Rank (after) [7]: 702
P8_MyD88 Rank (before) [8]: 1457
Sequence: WALDELLQILHARRTE

Rank (after) [1]: 981
Rank (before) [2]: 1460
Sequence: WALDELLQILHPRELV

P8_MyD88 Rank (after) [7]: 747
P8_MyD88 Rank (before) [8]: 1418
Sequence: WALDELLQILHVSEMF

Rank (after) [3]: 415
Rank (before) [4]: 1464
Sequence: WALDELLQILNAREMF

P8_MyD88 Rank (after) [7]: 721
P8_MyD88 Rank (before) [8]: 1462
Sequence: WALDELLQILQARELS

P8_MyD88 Rank (after) [7]: 727
P8_MyD88 Rank (before) [8]: 1465
Sequence: WALDELLQILRARDLF

Rank (after) [3]: 448
Rank (before) [4]: 1466
Sequence: WALDELLQILYARERF

P8_MyD88 Rank (after) [5]: 561
P8_MyD88 Rank (before) [6]: 1431
Sequence: WALDELLQLQHARELF

Population: 0.01%
Sequence: WALDELLRILY

P8_MyD88 Rank (after) [9]: 608
P8_MyD88 Rank (before) [10]: 1468
Sequence: WALDELLTILYAKETM

P8_MyD88 Rank (after) [7]: 701
P8_MyD88 Rank (before) [8]: 1502
Sequence: WALDELRKNLYAIETM

P8_MyD88 Rank (after) [9]: 631
P8_MyD88 Rank (before) [10]: 1426
Sequence: WALDELWHILRALGLF

P8_MyD88 Rank (after) [7]: 679
P8_MyD88 Rank (before) [8]: 1510
Sequence: WALDERLIIQYANETM

P8_MyD88 Rank (after) [5]: 544
P8_MyD88 Rank (before) [6]: 1423
Sequence: WALDEVLKIQDDNETM

Rank (after) [3]: 419
Rank (before) [4]: 1421
Sequence: WALDEVLQILRARELF

Rank (after) [3]: 409
Rank (before) [4]: 1413
Sequence: WALDGLLKILHARELF

P8_MyD88 Rank (after) [11]: 225
P8_MyD88 Rank (before) [12]: 426
Sequence: WALDLDWFYERLVSLF
